From PMC5500991, “Substituted arylsulphonamides as inhibitors of perforin-mediated lysis” (European Journal of Medicinal Chemistry, 2017)

Legend:
[1] = Toxicity to KHYG1 NK cells (Trypan blue exclusion); format: cell-based, human; conditions: human, viability of KHYG1 NK cells after 24 h, n = 3
Method: The toxicity assay was carried out in exactly the same manner as the killing assay above, but instead of adding the labelled K562 target cells, 100 μL of RPMI 0.1% BSA was added. Cells were incubated for 4 h at 37 °C and then washed ×3 in RPMI + 0.1% BSA. […] Trypan blue was added to each well. Viable (clear) cells and total (clear + blue) cells were counted, and the percentage of viable cells was calculated compared to DMSO treated cell control (% viability).

[2] = target: T1, perforin delivered by KHYG1 NK cells (Homo sapiens, UniProt P14222); assay: KHYG1 inhibitory assay: lysis of 51Cr-labelled K562 target cells by KHYG1 NK cells; format: cell-based; conditions: 51Cr-labelled K562 target cells co-incubated with KHYG1 human NK cells, vs untreated control, n = 4
T1 construct: The use of whole NK cells to deliver perforin provides a more realistic model of conditions in vivo; endogenous in cells; host or cells: KHYG1 human NK cells (effector); K562 leukemia target cells
T1 sequence (P14222 22-555): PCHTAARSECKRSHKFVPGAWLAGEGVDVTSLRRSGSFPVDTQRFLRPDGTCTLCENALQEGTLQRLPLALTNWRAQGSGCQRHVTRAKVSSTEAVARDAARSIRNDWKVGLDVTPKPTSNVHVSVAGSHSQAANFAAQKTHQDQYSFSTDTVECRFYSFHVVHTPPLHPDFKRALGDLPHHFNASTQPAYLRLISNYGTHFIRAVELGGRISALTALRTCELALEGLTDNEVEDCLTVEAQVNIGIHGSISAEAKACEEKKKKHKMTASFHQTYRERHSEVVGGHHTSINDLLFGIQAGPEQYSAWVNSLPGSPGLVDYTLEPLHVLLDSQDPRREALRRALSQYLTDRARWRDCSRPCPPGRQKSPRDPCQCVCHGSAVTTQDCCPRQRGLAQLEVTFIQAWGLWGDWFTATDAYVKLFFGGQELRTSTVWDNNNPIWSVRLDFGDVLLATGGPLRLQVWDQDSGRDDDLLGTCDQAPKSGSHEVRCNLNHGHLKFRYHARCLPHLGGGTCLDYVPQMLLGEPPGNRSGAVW
Method: The inhibitory function is then determined by identifying the number of untreated or inhibitor treated effector cells required to kill the same number of targets.

[3] = Solubility of the sodium salt in water; format: physicochemical; conditions: sodium salt in water at room temperature
Method: The compound was dissolved in water until it was no longer soluble in order to achieve a supersaturated concentration. The suspensions were sonicated for 15 min. prior to centrifugation at 13,000 revolutions per minute (rpm) for 6 minutes. Supernatants were removed and then recentrifuged prior to dilution of at least two fold in water to avoid precipitation during HPLC analysis.

SMILES	melting point [°C]	other results
Cc1ccc(S(=O)(=O)Nc2ccccn2)cc1-c1ccc(-c2ccc3c(c2)CN(C)C3=O)s1 [Compound 16, Sodium (4-methyl-3-(5-(2-methyl-1-oxoisoindolin-5-yl)thiophen-2-yl)phenylsulfonyl)(pyridin-2-yl)amide]	–	viability at 24 h, 10 µM [1]: 96.1 ± 6%; inhibition at 10 µM [2]: 0%
CN1Cc2cc(-c3ccc(-c4cc(NS(=O)(=O)c5ccccn5)ccc4F)s3)ccc2C1=O [Compound 17, N-{4-Fluoro-3-[5-(2-methyl-1-oxo-2,3-dihydro-1H-isoindol-5-yl)-2-thienyl]phenyl}-2-pyridinesulfonamide]	–	viability at 24 h, 10 µM [1]: 91.4 ± 6.5%; inhibition at 10 µM [2]: 0%
CN1Cc2cc(-c3ccc(-c4cnc(F)c(NS(=O)(=O)c5ccccn5)c4)s3)ccc2C1=O [Compound 20, N-(2-Fluoro-5-(5-(2-methyl-1-oxoisoindolin-5-yl)thiophen-2-yl)pyridin-3-yl)pyridine-2-sulfonamide]	–	Solubility [3]: significantly improved
CN1Cc2cc(-c3ccc(-c4cncc(NS(=O)(=O)c5cc(C(F)(F)F)cc(C(F)(F)F)c5)c4)s3)ccc2C1=O [Compound 47, N-(5-(5-(2-Methyl-1-oxoisoindolin-5-yl)thiophen-2-yl)pyridin-3-yl)-3,5-bis(trifluoromethyl)benzenesulphonamide]	299 to 302	viability at 24 h, 10 µM [1]: 90.2 ± 3.4%; inhibition at 10 µM [2]: 0%
CN1Cc2cc(-c3ccc(-c4cncc(NS(=O)(=O)c5ccccc5C#N)c4)s3)ccc2C1=O [Compound 48, 2-Cyano-N-(5-(5-(2-methyl-1-oxoisoindolin-5-yl)thiophen-2-yl)pyridin-3-yl)benzenesulfonamide]	> 310	–
COC(=O)c1ccccc1S(=O)(=O)Nc1cncc(-c2ccc(-c3ccc4c(c3)CN(C)C4=O)s2)c1 [Compound 51, Methyl 2-(N-(5-(5-(2-methyl-1-oxoisoindolin-5-yl)thiophen-2-yl)pyridin-3-yl)sulfamoyl)benzoate]	209 to 212	–
COC(=O)c1cccc(S(=O)(=O)Nc2cncc(-c3ccc(-c4ccc5c(c4)CN(C)C5=O)s3)c2)c1 [Compound 52, Methyl 3-(N-(5-(5-(2-methyl-1-oxoisoindolin-5-yl)thiophen-2-yl)pyridin-3-yl)sulfamoyl)benzoate]	250 to 254	–
COC(=O)c1ccc(S(=O)(=O)Nc2cncc(-c3ccc(-c4ccc5c(c4)CN(C)C5=O)s3)c2)cc1 [Compound 53, Methyl 4-(N-(5-(5-(2-methyl-1-oxoisoindolin-5-yl)thiophen-2-yl)pyridin-3-yl)sulfamoyl)benzoate]	269 to 272	–
CCOC(=O)c1ccc(S(=O)(=O)Nc2cncc(-c3ccc(-c4ccc5c(c4)CN(C)C5=O)s3)c2)cc1 [Compound 54, Ethyl 4-(N-(5-(5-(2-methyl-1-oxoisoindolin-5-yl)thiophen-2-yl)pyridin-3-yl)sulfamoyl)benzoate]	272 to 275	–
CN1Cc2cc(-c3ccc(-c4cncc(NS(=O)(=O)c5ccccc5S(C)(=O)=O)c4)s3)ccc2C1=O [Compound 56, N-(5-(5-(2-Methyl-1-oxoisoindolin-5-yl)thiophen-2-yl)pyridin-3-yl)-2-(methylsulfonyl)benzenesulfonamide]	269 to 272	–
CN1Cc2cc(-c3ccc(-c4cncc(NS(=O)(=O)c5ccc(S(C)(=O)=O)cc5)c4)s3)ccc2C1=O [Compound 57, Sodium (5-(5-(2-methyl-1-oxoisoindolin-5-yl)thiophen-2-yl)pyridin-3-yl)((4-(methylsulfonyl)phenyl)sulfonyl)amide]	–	viability at 24 h, 10 µM [1]: 90 ± 7.8%; inhibition at 10 µM [2]: 0%
CN1Cc2cc(-c3ccc(-c4cncc(NS(=O)(=O)c5cccc(Cl)c5F)c4)s3)ccc2C1=O [Compound 60, 3-Chloro-2-fluoro-N-(5-(5-(2-methyl-1-oxoisoindolin-5-yl)thiophen-2-yl)pyridin-3-yl)benzenesulfonamide]	269 to 272	–
Cc1cc(F)ccc1S(=O)(=O)Nc1cncc(-c2ccc(-c3ccc4c(c3)CN(C)C4=O)s2)c1 [Compound 61, 4-Fluoro-2-methyl-N-(5-(5-(2-methyl-1-oxoisoindolin-5-yl)thiophen-2-yl)pyridin-3-yl) benzenesulphonamide]	280 to 283	–
Cc1ccc(S(=O)(=O)Nc2cncc(-c3ccc(-c4ccc5c(c4)CN(C)C5=O)s3)c2)cc1Cl [Compound 63, 3-Chloro-4-methyl-N-(5-(5-(2-methyl-1-oxoisoindolin-5-yl)thiophen-2-yl)pyridin-3-yl)benzenesulfonamide]	277 to 279	–
CN1Cc2cc(-c3ccc(-c4cncc(NS(=O)(=O)c5ccc(C(F)(F)F)cc5Cl)c4)s3)ccc2C1=O [Compound 64, 2-Chloro-N-(5-(5-(2-methyl-1-oxoisoindolin-5-yl)thiophen-2-yl)pyridin-3-yl)-4-(trifluoromethyl)benzenesulfonamide]	292 to 295	–
CN1Cc2cc(-c3ccc(-c4cncc(NS(=O)(=O)c5cc(Br)cc(C(F)(F)F)c5)c4)s3)ccc2C1=O [Compound 65, 3-Bromo-N-(5-(5-(2-methyl-1-oxoisoindolin-5-yl)thiophen-2-yl)pyridin-3-yl)-5-(trifluoromethyl)benzenesulphonamide]	280 to 283	–
CN1Cc2cc(-c3ccc(-c4cncc(NS(=O)(=O)c5ccccn5)c4)s3)ccc2C1=O [Compound 66, N-(5-(5-(2-Methyl-1-oxoisoindolin-5-yl)thiophen-2-yl)pyridin-3-yl)pyridine-2-sulfonamide]	272 to 275	–
CN1Cc2cc(-c3ccc(-c4cncc(NS(=O)(=O)c5cccnc5)c4)s3)ccc2C1=O [Compound 67, N-(5-(5-(2-Methyl-1-oxoisoindolin-5-yl)thiophen-2-yl)pyridin-3-yl)pyridine-3-sulfonamide]	283 to 286	–
CN1Cc2cc(-c3ccc(-c4cncc(NS(=O)(=O)c5cccs5)c4)s3)ccc2C1=O [Compound 68, N-(5-(5-(2-Methyl-1-oxoisoindolin-5-yl)thiophen-2-yl)pyridin-3-yl)thiophene-2-sulfonamide]	300 to 304	–
CN1Cc2cc(-c3ccc(-c4cncc(NS(=O)(=O)c5ccsc5)c4)s3)ccc2C1=O [Compound 69, N-(5-(5-(2-Methyl-1-oxoisoindolin-5-yl)thiophen-2-yl)pyridin-3-yl)thiophene-3-sulfonamide]	> 300	–
CN1Cc2cc(-c3ccc(-c4cncc(NS(=O)(=O)c5ccc(-c6cnco6)cc5)c4)s3)ccc2C1=O [Compound 70, N-(5-(5-(2-Methyl-1-oxoisoindolin-5-yl)thiophen-2-yl)pyridin-3-yl)-4-(oxazol-5-yl)benzenesulfonamides]	278 to 281	–
CN1Cc2cc(-c3ccc(-c4cncc(NS(=O)(=O)c5ccc(-c6ccno6)s5)c4)s3)ccc2C1=O [Compound 71, 5-(Isoxazol-5-yl)-N-(5-(5-(2-methyl-1-oxoisoindolin-5-yl)thiophen-2-yl)pyridin-3-yl)thiophene-2-sulfonamide]	245 to 249	–
Cc1cc(C)n(-c2ccc(S(=O)(=O)Nc3cncc(-c4ccc(-c5ccc6c(c5)CN(C)C6=O)s4)c3)cc2)n1 [Compound 72, 4-(3,5-Dimethyl-1H-pyrazol-1-yl)-N-(5-(5-(2-methyl-1-oxoisoindolin-5-yl)thiophen-2-yl)pyridin-3-yl)benzenesulfonamide]	265 to 268	–
Cc1ncsc1S(=O)(=O)Nc1cncc(-c2ccc(-c3ccc4c(c3)CN(C)C4=O)s2)c1 [Compound 74, 4-Methyl-N-(5-(5-(2-methyl-1-oxoisoindolin-5-yl)thiophen-2-yl)pyridin-3-yl)thiazole-5-sulphonamide]	277 to 280	–
